Laboratory results taken from publication PMC6273270, “Flavonoid Interaction with a Chitinase from Grape Berry Skin: Protein Identification and Modulation of the Enzymatic Activity” (Molecules, 2016).

Tested on: T1, chitinase from S. griseus
T1 construct: gene chiC; commercial native preparation (Sigma Aldrich), low purity, antibody-reactive band about 23 kDa; authors ascribe it to family 19 chitinase C
Assay: fluorimetric release of 4-methylumbelliferone, Michaelis-Menten fit
Type: biochemical, Streptomyces griseus
Conditions: McIlvain's buffer, pH 5.5, 37 °C, 1 h; no flavonoid (control of the quercetin series); apparent; commercial low-purity enzyme
Text: fluorimetric release of 4-methylumbelliferone, Michaelis-Menten fit on chitinase from S. griseus

Km: 35.4 ± 4.18 µM
SMILES: CC(=O)N[C@H]1[C@H](Oc2ccc3c(C)cc(=O)oc3c2)O[C@H](CO)[C@@H](O[C@@H]2O[C@H](CO)[C@@H](O[C@@H]3O[C@H](CO)[C@@H](O)[C@H](O)[C@H]3NC(C)=O)[C@H](O)[C@H]2NC(C)=O)[C@@H]1O [4-methylumbelliferyl β-d-N,N′,N′-tri-acetyl-chitotrioside]
